Data taken from patent US20150005506A1, “THERAPEUTIC AGENT FOR DIABETES” (Teijin Pharma Limited, priority 2012, published 2015).

Columns and labels:
Format in all cases: in vivo, C57BL/6J mice
[1] = tested on: mice loaded with a high-fat diet; experiment: Random blood glucose level in mice loaded with high-fat diet; details: 3 mg/kg/day in drinking water, 10 weeks, mean ± standard deviation, n = 9 to 10
Method: (§1) Male C57BL/6J mice (age of 8 weeks) were loaded with a high-fat diet, with the proportion of fat-derived calories over total calories (Fat Kcal %) of 60%. Herewith, insulin resistance, impaired glucose tolerance, and diabetes mellitus are developed. In a group of febuxostat treatment (Febuxostat group), febuxostat was dissolved in tap water at a dose of 3 mg/kg/day and was administered to the mice as daily drinking water at the same time of the initiation of loading with a high-fat diet. Mice in the Vehicle group were given tap water. Moreover, in the normal animal group, mice were reared with a regular diet and tap water in the same period as the Febuxostat group and the Vehicle group. Ten weeks after the start of the high-fat diet and the administration of febuxostat, an insulin tolerance test was carried out to assess random blood glucose levels and insulin resistance. More specifically, 1.5 U/kg of insulin was intraperitoneally administered to the mice and blood glucose levels were measured at 0 minute, 30 minutes, 60 minutes, 90 minutes, 120 minutes after the administration of insulin. […] Blood glucose levels were measured at 120 minutes after the administration of glucose. […]

[2] = tested on: mice loaded with a high-fat diet; experiment: Blood uric acid levels in mice loaded with high-fat diet; details: last day of administration, 3 mg/kg/day in drinking water
Method: as §1

[3] = tested on: mice loaded with a high-fat diet; experiment: Blood glucose levels 2 hours after glucose load in mice loaded with high-fat diet; details: 0.5 g/kg glucose i.p. after 4 hours starvation, 3 mg/kg/day in drinking water, 12 weeks
Method: as §1

[4] = tested on: mice loaded with a high-fat diet; experiment: Glucose tolerance test in mice loaded with high-fat diet (Example 2); details: 3 mg/kg/day in drinking water, 12 weeks
Method: Male C57BL/6J mice (8 week-old) were loaded with a high-fat diet with the proportion of fat-derived calories over the total calories (Fat Kcal %) of 60%. Herewith, insulin resistance, impaired glucose tolerance, and diabetes mellitus are developed. At the same time of the initiation of loading high-fat diet, febuxostat dissolved in tap water at 3 mg/kg/day was administered to mice as drinking water in the Febuxostat group and mice in the Vehicle group were reared by administration of tap water as drinking water. Twelve weeks after the loading of a high-fat diet and the administration of febuxostat, a glucose tolerance test was carried out to assess impaired glucose tolerance. More specifically, the mice were made to fast for 4 hours; thereafter 0.5 g/kg of glucose was intraperitoneally administered to the mice. And blood sampling was conducted at 0 minute, 15 minutes, 30 minutes, 60 minutes, 90 minutes, and 120 minutes after glucose load respectively to measure glucose levels.

[5] = tested on: mice loaded with a high-fat diet; experiment: Insulin tolerance test in mice loaded with high-fat diet; details: 3 mg/kg/day in drinking water, 10 weeks
Method: Male C57BL/6J mice (age of 8 weeks) were loaded with a high-fat diet, with the proportion of fat-derived calories over total calories (Fat Kcal %) of 60%. Herewith, insulin resistance, impaired glucose tolerance, and diabetes mellitus are developed. In a group of febuxostat treatment (Febuxostat group), febuxostat was dissolved in tap water at a dose of 3 mg/kg/day and was administered to the mice as daily drinking water at the same time of the initiation of loading with a high-fat diet. Mice in the Vehicle group were given tap water. Moreover, in the normal animal group, mice were reared with a regular diet and tap water in the same period as the Febuxostat group and the Vehicle group. Ten weeks after the start of the high-fat diet and the administration of febuxostat, an insulin tolerance test was carried out to assess random blood glucose levels and insulin resistance. More specifically, 1.5 U/kg of insulin was intraperitoneally administered to the mice and blood glucose levels were measured at 0 minute, 30 minutes, 60 minutes, 90 minutes, 120 minutes after the administration of insulin. Moreover, 12 weeks after the initiation of the high-fat diet and the administration of febuxostat, 0.5 g/kg of glucose was intraperitoneally administered to the mice starved for 4 hours to assess 2-hour blood glucose levels after glucose load. Blood glucose levels were measured at 120 minutes after the administration of glucose. Moreover, on the last day of the administration, blood sampling was carried out to measure blood uric acid levels.

## Cc1nc(-c2ccc(OCC(C)C)c(C#N)c2)sc1C(=O)O [Febuxostat, 2-(3-cyano-4-isobutyloxyphenyl)-4-methyl-5-thiazole carboxylic acid]
[1]
  Random blood glucose level: 244 ± 7 mg/dL
[2]
  Blood uric acid levels: 0.7 ± 0.1 mg/dL
[3]
  Blood glucose levels 2 hours after glucose load: 396 ± 18 mg/dL
[4]; 0 min after 0.5 g/kg glucose i.p., n = 5 to 6
  Blood glucose levels: 214 ± 17 mg/dL
[4]; 15 min after 0.5 g/kg glucose i.p.
  Blood glucose levels: 368 ± 29 mg/dL
[4]; 30 min after 0.5 g/kg glucose i.p.
  Blood glucose levels: 378 ± 26 mg/dL
[4]; 60 min after 0.5 g/kg glucose i.p.
  Blood glucose levels: 349 ± 35 mg/dL
[4]; 90 min after 0.5 g/kg glucose i.p.
  Blood glucose levels: 323 ± 43 mg/dL
[4]; 120 min after 0.5 g/kg glucose i.p.
  Blood glucose levels: 279 ± 31 mg/dL
[5]; 30 min after 1.5 U/kg insulin i.p.
  Ratio of blood glucose levels relative to the value before insulin administration: 66 ± 4%
[5]; 60 min after 1.5 U/kg insulin i.p.
  Ratio of blood glucose levels relative to the value before insulin administration: 62 ± 3%
[5]; 90 min after 1.5 U/kg insulin i.p.
  Ratio of blood glucose levels relative to the value before insulin administration: 71 ± 4%
[5]; 120 min after 1.5 U/kg insulin i.p.
  Ratio of blood glucose levels relative to the value before insulin administration: 91 ± 5%
[5]; after 1.5 U/kg insulin i.p.
  Blood glucose level AUC (0-2 hour): 371 ± 17 mg·h/dL
